pEC50: −log10 of the molar value.
Molecular target: T1, human mAChR M1 (Homo sapiens, UniProt P11229)
T1 sequence (P11229 1-460): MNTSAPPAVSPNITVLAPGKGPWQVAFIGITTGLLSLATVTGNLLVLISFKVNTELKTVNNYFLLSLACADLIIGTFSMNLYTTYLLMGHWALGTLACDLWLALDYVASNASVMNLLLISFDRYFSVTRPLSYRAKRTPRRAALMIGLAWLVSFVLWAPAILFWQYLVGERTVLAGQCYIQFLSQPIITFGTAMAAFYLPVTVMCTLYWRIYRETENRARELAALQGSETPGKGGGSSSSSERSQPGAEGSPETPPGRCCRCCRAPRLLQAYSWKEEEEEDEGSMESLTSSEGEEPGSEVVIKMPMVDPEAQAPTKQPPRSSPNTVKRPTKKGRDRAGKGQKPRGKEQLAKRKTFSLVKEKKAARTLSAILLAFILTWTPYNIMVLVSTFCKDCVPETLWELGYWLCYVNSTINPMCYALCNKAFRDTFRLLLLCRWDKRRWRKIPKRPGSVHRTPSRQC
Experiment: mAChR M1 cell-based functional assay: calcium mobilization, positive allosteric modulator mode (increase in EC20 acetylcholine response)
Conditions: Table 2, human M1; for pEC50: read-out: Human M1 EC50; for Emax: read-out: Human M1 Emax (%)
Procedure, shortened: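 PAM potency reflects the concentration-dependent increase in calcium response to an EC20 acetylcholine challenge, given 144 s into a 300 s read after compound addition at 4 s (EC80 follows at 230 s). Cells were hM1-expressing CHO-K1, loaded 50 min with Fluo-4 AM. Curves used 11 points at 1:3 dilutions and four-parameter logistic fitting.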

Structure (SMILES) | pEC50 | Emax
Cn1ccc(-c2ccc(Cc3cc(C(=O)NC4CN(C5COC5)C4)nc4ccsc34)cn2)n1 [Compound 425] | 5.29 | 65.8%
Cn1ccc(-c2ccc(Cc3cc(C(=O)NC[C@@H]4CCCN4)nc4ccsc34)cn2)n1 [Compound 426] | 6.54 | 62.7%
Cn1ccc(-c2ccc(Cc3cc(C(=O)NC[C@H]4CCCN4)nc4ccsc34)cn2)n1 [Compound 427] | 6.50 | 64.6%
CCN1CCC[C@H]1CNC(=O)c1cc(Cc2ccc(-c3ccn(C)n3)nc2)c2sccc2n1 [Compound 428] | 5.72 | 70.2%
COCCNC(=O)c1cc(Cc2ccc(-n3cccn3)cc2)c2sccc2n1 [Compound 429, N-(2-methoxyethyl)-7-[(4-pyrazol-1-ylphenyl)methyl]thieno[3,2-b]pyridine-5-carboxamide] | 6.22 | 72.7%
COCCCNC(=O)c1cc(Cc2ccc(-n3cccn3)cc2)c2sccc2n1 [Compound 430, N-(3-methoxypropyl)-7-[(4-pyrazol-1-ylphenyl)methyl]thieno[3,2-b]pyridine-5-carboxamide] | 5.97 | 72.9%
COC1CC(NC(=O)c2cc(Cc3ccc(-n4cccn4)cc3)c3sccc3n2)C1 (stereo not drawn) [Compound 431, N-(3-methoxycyclobutyl)-7-[(4-pyrazol-1-ylphenyl)methyl]thieno[3,2-b]pyridine-5-carboxamide] | 5.83 | 69.3%
O=C(NC1CN(CC(F)(F)F)C1)c1cc(Cc2ccc(-n3cccn3)cc2)c2sccc2n1 [Compound 432] | 5.47 | 47.5%
O=C(NC1CN(C2COC2)C1)c1cc(Cc2ccc(-n3cccn3)cc2)c2sccc2n1 [Compound 433, N-[1-(oxetan-3-yl)azetidin-3-yl]-7-[(4-pyrazol-1-ylphenyl)methyl]thieno[3,2-b]pyridine-5-carboxamide] | 5.75 | 65.4%
CC(C)(C)N1CC(NC(=O)c2cc(Cc3ccc(-n4cccn4)cc3)c3sccc3n2)C1 [Compound 434, N-(1-tert-butylazetidin-3-yl)-7-[(4-pyrazol-1-ylphenyl)methyl]thieno[3,2-b]pyridine-5-carboxamide] | 5.84 | 66.2%
CN1CC(NC(=O)c2cc(Cc3ccc(-n4cccn4)cc3)c3sccc3n2)C1 [Compound 435, N-(1-methylazetidin-3-yl)-7-[(4-pyrazol-1-ylphenyl)methyl]thieno[3,2-b]pyridine-5-carboxamide] | 5.64 | 76.9%
O=C(NC1CCC1)c1cc(Cc2ccc(-n3cccn3)cc2)c2sccc2n1 [Compound 436, N-cyclobutyl-7-[(4-pyrazol-1-ylphenyl)methyl]thieno[3,2-b]pyridine-5-carboxamide] | 5.82 | 69.1%
O=C(NC1CCCC1=O)c1cc(Cc2ccc(-n3cccn3)cc2)c2sccc2n1 (stereo not drawn) [Compound 437, N-(2-oxocyclopentyl)-7-[(4-pyrazol-1-ylphenyl)methyl]thieno[3,2-b]pyridine-5-carboxamide] | 6.70 | 70%
CN1CC(NC(=O)c2cc(Cc3ccc(-n4cccn4)cc3)c3sccc3n2)CC1=O (stereo not drawn) [Compound 438, N-(1-methyl-5-oxo-pyrrolidin-3-yl)-7-[(4-pyrazol-1-ylphenyl)methyl]thieno[3,2-b]pyridine-5-carboxamide] | 5.66 | 63.1%
O=C(NC1CCS(=O)(=O)C1)c1cc(Cc2ccc(-n3cccn3)cc2)c2sccc2n1 (stereo not drawn) [Compound 439, N-(1,1-dioxothiolan-3-yl)-7-[(4-pyrazol-1-ylphenyl)methyl]thieno[3,2-b]pyridine-5-carboxamide] | 6.40 | 68.1%
O=C(NC1CCOC1)c1cc(Cc2ccc(-n3cccn3)cc2)c2sccc2n1 (stereo not drawn) [Compound 440, 7-[(4-pyrazol-1-ylphenyl)methyl]-N-tetrahydrofuran-3-yl-thieno[3,2-b]pyridine-5-carboxamide] | 5.71 | 69.3%
O=C1CC(NC(=O)c2cc(Cc3ccc(-n4cccn4)cc3)c3sccc3n2)CN1 (stereo not drawn) [Compound 441, N-(5-oxopyrrolidin-3-yl)-7-[(4-pyrazol-1-ylphenyl)methyl]thieno[3,2-b]pyridine-5-carboxamide] | 5.83 | 63.7%

Structure (SMILES) | pEC50 | Emax
CN1CCCC(NC(=O)c2cc(Cc3ccc(-n4cccn4)cc3)c3sccc3n2)C1 (stereo not drawn) [Compound 442, N-(1-methyl-3-piperidyl)-7-[(4-pyrazol-1-ylphenyl)methyl]thieno[3,2-b]pyridine-5-carboxamide] | 5.83 | 71.8%
CN1CCC(NC(=O)c2cc(Cc3ccc(-n4cccn4)cc3)c3sccc3n2)CC1 [Compound 443, N-(1-methyl-4-piperidyl)-7-[(4-pyrazol-1-ylphenyl)methyl]thieno[3,2-b]pyridine-5-carboxamide] | 5.83 | 66.6%
CC1COCCC1NC(=O)c1cc(Cc2ccc(-n3cccn3)cc2)c2sccc2n1 (stereo not drawn) [Compound 444, N-(3-methyltetrahydropyran-4-yl)-7-[(4-pyrazol-1-ylphenyl)methyl]thieno[3,2-b]pyridine-5-carboxamide] | 6.58 | 71%
O=C(c1cc(Cc2ccc(-n3cccn3)cc2)c2sccc2n1)N1CC2CC1CO2 (stereo not drawn) [Compound 445, 2-oxa-5-azabicyclo[2.2.1]heptan-5-yl-[7-[(4-pyrazol-1-ylphenyl)methyl]thieno[3,2-b]pyridin-5-yl]methanone] | < 5.00 | 50.7%
CC(NC(=O)c1cc(Cc2ccc(-n3cccn3)cc2)c2sccc2n1)C1CCCO1 (stereo not drawn) [Compound 446, 7-[(4-pyrazol-1-ylphenyl)methyl]-N-(1-tetrahydrofuran-2-ylethyl)thieno[3,2-b]pyridine-5-carboxamide] | 6.04 | 72.8%
O=C(NC1CCCOC1)c1cc(Cc2ccc(-n3cccn3)cc2)c2sccc2n1 (stereo not drawn) [Compound 447, 7-[(4-pyrazol-1-ylphenyl)methyl]-N-tetrahydropyran-3-yl-thieno[3,2-b]pyridine-5-carboxamide] | 5.96 | 73.9%
O=C(NCc1cc[nH]n1)c1cc(Cc2ccc(-n3cccn3)cc2)c2sccc2n1 [Compound 448, N-(1H-pyrazol-3-ylmethyl)-7-[(4-pyrazol-1-ylphenyl)methyl]thieno[3,2-b]pyridine-5-carboxamide] | 6.10 | 67.8%
Cn1ccc2nc(C(=O)NC3CC4(COC4)C3)cc(Cc3ccc(-n4cccn4)cc3)c21 [Compound 449, 1-Methyl-N-(2-oxaspiro[3.3]heptan-6-yl)-7-[(4-pyrazol-1-ylphenyl)methyl]pyrrolo[3,2-b]pyridine-5-carboxamide] | 6.80 | 73.1%
Cn1ccc2nc(C(=O)N[C@H]3CCOC[C@@H]3O)cc(Cc3ccc(-c4cscn4)cc3)c21 [Compound 450, N-[(3R,4S)-3-hydroxytetrahydropyran-4-yl]-1-methyl-7-[(4-thiazol-4-ylphenyl)methyl]pyrrolo[3,2-b]pyridine-5-carboxamide] | 8.16 | 71%
Cn1ccc2nc(C(=O)NC3CCOCC3)cc(Cc3ccc(-c4cscn4)cc3)c21 [Compound 451, 1-methyl-N-tetrahydropyran-4-yl-7-[(4-thiazol-4-ylphenyl)methyl]pyrrolo[3,2-b]pyridine-5-carboxamide] | 6.74 | 71.7%
Cn1ccc2nc(C(=O)NC3CC4(COC4)C3)cc(Cc3ccc(-c4cscn4)cc3)c21 [Compound 452, 1-methyl-N-(2-oxaspiro[3.3]heptan-6-yl)-7-[(4-thiazol-4-ylphenyl)methyl]pyrrolo[3,2-b]pyridine-5-carboxamide] | 6.47 | 71.9%
Cn1ccc2nc(C(=O)N[C@H]3CCOC[C@@H]3O)cc(Cc3ccc(-n4cccn4)cc3)c21 [Compound 453, N-[(3R,4S)-3-hydroxytetrahydropyran-4-yl]-1-methyl-7-[(4-pyrazol-1-ylphenyl)methyl]pyrrolo[3,2-b]pyridine-5-carboxamide] | 8.17 | 63.1%
Cn1ccc2nc(C(=O)N[C@H]3CCCC[C@@H]3O)cc(Cc3ccc(-n4cccn4)cc3)c21 [Compound 454, N-[(1S,2S)-2-hydroxycyclohexyl]-1-methyl-7-[(4-pyrazol-1-ylphenyl)methyl]pyrrolo[3,2-b]pyridine-5-carboxamide] | 7.86 | 69.3%
Cn1ccc2nc(C(=O)NC3CCOCC3)cc(Cc3ccc(-n4cccn4)cc3)c21 [Compound 455, 1-methyl-7-[(4-pyrazol-1-ylphenyl)methyl]-N-tetrahydropyran-4-yl-pyrrolo[3,2-b]pyridine-5-carboxamide] | 6.87 | 75.1%
Cn1ccc2nc(C(=O)N[C@H]3CCCCC[C@@H]3O)cc(Cc3ccc(-c4cscn4)cc3)c21 [Compound 456, N-[(1S,2S)-2-hydroxycycloheptyl]-1-methyl-7-[(4-thiazol-4-ylphenyl)methyl]pyrrolo[3,2-b]pyridine-5-carboxamide] | 6.89 | 67.9%
Cn1ccc2nc(C(=O)N[C@H]3CCCC[C@@H]3O)cc(Cc3ccc(-c4cscn4)cc3)c21 [Compound 457, N-[(1S,2S)-2-hydroxycyclohexyl]-1-methyl-7-[(4-thiazol-4-ylphenyl)methyl]pyrrolo[3,2-b]pyridine-5-carboxamide] | 7.46 | 64.8%

Source: patent US11111251B2, “Positive allosteric modulators of the muscarinic acetylcholine receptor M1” (Vanderbilt University, priority 2016, dated 2021)
